{
  "source": "ChEMBL document CHEMBL1130881",
  "about": "“Novel imidazole derivatives with subtype-selective antimuscarinic activity (1)” (Bioorg Med Chem Lett, 1998)",
  "data": [
    {"biological_target": "Muscarinic acetylcholine receptor M3 (Cavia porcellus) (UniProt Q8VH26)", "sequence (Q8VH26 1-587)": "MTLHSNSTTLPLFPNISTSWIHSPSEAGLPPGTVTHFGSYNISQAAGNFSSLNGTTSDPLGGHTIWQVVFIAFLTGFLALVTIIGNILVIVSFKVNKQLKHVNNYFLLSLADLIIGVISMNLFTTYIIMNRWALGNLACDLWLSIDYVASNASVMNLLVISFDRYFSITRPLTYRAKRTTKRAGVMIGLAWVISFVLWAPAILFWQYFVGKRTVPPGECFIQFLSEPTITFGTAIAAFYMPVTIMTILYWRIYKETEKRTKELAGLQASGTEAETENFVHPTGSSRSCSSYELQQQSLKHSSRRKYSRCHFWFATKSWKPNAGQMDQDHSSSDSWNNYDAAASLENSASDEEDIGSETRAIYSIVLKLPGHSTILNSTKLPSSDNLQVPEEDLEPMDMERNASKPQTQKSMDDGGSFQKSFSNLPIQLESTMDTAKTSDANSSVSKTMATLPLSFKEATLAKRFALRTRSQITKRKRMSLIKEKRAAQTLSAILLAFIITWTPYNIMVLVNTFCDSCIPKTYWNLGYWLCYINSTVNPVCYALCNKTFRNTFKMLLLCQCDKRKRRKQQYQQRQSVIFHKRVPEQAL", "assay": "Antimuscarinic activity was evaluated against muscarinic M3 receptor in Guinea-Pig ileum", "assay_type": "tissue-based", "units": {"Kb": "nM"}, "values": [
      {"smiles": "Cc1cn(CCC(C(N)=O)(c2ccccc2)c2ccccc2)cn1", "Kb": 10.1},
      {"smiles": "CC(CC(c1ccccc1)c1ccccc1)NC(C)(C)C", "note": "(centres undefined)", "Kb": 67.7},
      {"smiles": "CCc1nccn1CCC(C(N)=O)(c1ccccc1)c1ccccc1", "Kb": 78.1},
      {"smiles": "NC(=O)C(CCn1cnc2ccccc21)(c1ccccc1)c1ccccc1", "Kb": 2130},
      {"smiles": "Cc1cncn1CCC(C(N)=O)(c1ccccc1)c1ccccc1", "Kb": 0.86},
      {"smiles": "c1ccc(C(CCn2ccnc2)c2ccccc2)cc1", "Kb": 89.1},
      {"smiles": "CCN(CC)CCC(c1ccccc1)c1ccccc1", "Kb": 197},
      {"smiles": "CC(C)(C)c1nccn1CCC(C(N)=O)(c1ccccc1)c1ccccc1", "Kb": 30.2},
      {"smiles": "CCCc1nccn1CCC(C(N)=O)(c1ccccc1)c1ccccc1", "Kb": 177},
      {"smiles": "NC(=O)C(CCN1CCCC1)(c1ccccc1)c1ccccc1", "Kb": 5.59},
      {"smiles": "Cc1nccn1CCC(C(N)=O)(c1ccccc1)c1ccccc1", "Kb": 0.32},
      {"smiles": "CC(C)c1nccn1CCC(C(N)=O)(c1ccccc1)c1ccccc1", "Kb": 1.8},
      {"smiles": "CCCc1ncn(CCC(C(N)=O)(c2ccccc2)c2ccccc2)c1CCC", "Kb": 100},
      {"smiles": "c1ccc(C(CCN2CCCCC2)c2ccccc2)cc1", "Kb": 69.6},
      {"smiles": "Cc1ncn(CCC(C(N)=O)(c2ccccc2)c2ccccc2)c1C", "Kb": 2.7},
      {"smiles": "CC(C)(C)NCCC(c1ccccc1)c1ccccc1", "Kb": 792},
      {"smiles": "N#CC(CCN1CCCC1)(c1ccccc1)c1ccccc1", "Kb": 65.7},
      {"smiles": "CCc1ncn(CCC(C(N)=O)(c2ccccc2)c2ccccc2)c1CC", "Kb": 3.98},
      {"smiles": "NC(=O)C(CCn1ccnc1)(c1ccccc1)c1ccccc1", "Kb": 5.07}
    ]}
  ]
}
